Measured values published in US20230085307A1, “PYRIDAZINONE COMPOUND AND HERBICIDE” (NISSAN CHEMICAL CORPORATION, priority 2019, published 2023).

Tests used:
windgrass = experiment: Test Example 4: herbicidal effect by soil treatment (Table 19, symbol L); format: in vivo, windgrass (Apera spica-venti); conditions: amount of applied herbicide 320 g/ha
Procedure, shortened: (§1)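 Three weeks of greenhouse growth at 25° C. to 30° C. followed a uniform surface spray of water-diluted emulsion at a predetermined herbicide amount. Seeds had been sown beforehand under about 1.5 cm of sterilized diluvial soil. Grading followed criteria set out in an earlier test.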

barnyard grass [1] = experiment: Test Example 3: herbicidal effect by foliage application, Wagner pot (Table 18, symbol H); format: in vivo, barnyard grass (Echinochloa crus-galli); conditions: for herbicidal effect on barnyard grass (H): 320 g/ha
Procedure, shortened: (§2)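 Plants were sown in alluvial soil held under 0.1–0.5 cm standing water and grown 14 days in a greenhouse at 25–30 °C. An emulsifiable formulation, water-diluted to the set dose, was then sprayed onto the foliage, and effects were scored three weeks later using previously defined criteria.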

rice flat sedge = experiment: Test Example 3: herbicidal effect by foliage application, Wagner pot (Table 18, symbol E); format: in vivo, rice flat sedge (Cyperus iria); conditions: for herbicidal effect on rice flat sedge (E): 320 g/ha
Procedure, shortened: as §2

lambsquarters = experiment: Test Example 5: herbicidal effect by foliage application, plastic box (Table 20, symbol O); format: in vivo, lambsquarters (Chenopodium album); conditions: foliage application, 320 g/ha, three weeks after application
Procedure, shortened: (§3)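 Plants sown in sterilized diluvial soil and grown 14 days in a greenhouse at 25° C to 30° C, then sprayed on the foliage with the compound's emulsion diluted in water to a predetermined herbicide amount. Injury to weeds and crops scored three weeks after application on a visual rating scale.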

southern crabgrass = experiment: Test Example 4: herbicidal effect by soil treatment (Table 19, symbol F); format: in vivo, southern crabgrass (Digitaria ciliaris); conditions: amount of applied herbicide 320 g/ha
Procedure, shortened: as §1

chickweed = experiment: Test Example 4: herbicidal effect by soil treatment (Table 19, symbol P); format: in vivo, common chickweed (Stellaria media); conditions: amount of applied herbicide 320 g/ha
Procedure, shortened: as §1

barnyard grass [2] = experiment: Test Example 4: herbicidal effect by soil treatment (Table 19, symbol H); format: in vivo, barnyard grass (Echinochloa crus-galli); conditions: amount of applied herbicide 320 g/ha
Procedure, shortened: as §1

Chinese sprangletop = experiment: Test Example 3: herbicidal effect by foliage application, Wagner pot (Table 18, symbol D); format: in vivo, chinese sprangletop (Leptochloa chinensis); conditions: for herbicidal effect on Chinese sprangletop (D): 320 g/ha
Procedure, shortened: as §2

oval-leafed pondweed = experiment: Test Example 1: herbicidal activity, application before weed generation under submerged conditions (Table 16, symbol C); format: in vivo, oval-leafed pondweed (Monochoria vaginalis); conditions: amount of applied herbicide 320 g/ha
Procedure, shortened: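 Emulsion formulation, water-diluted to set dose, was put onto the flooded surface (4 cm depth, alluvial soil) the same day weeds were sown and 2.5-leaf rice transplanted. After 3 weeks at 25-30 °C under glass, each species was rated 0 (≤5% kill) to 5 (≥90% kill).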

persian speedwell = experiment: Test Example 5: herbicidal effect by foliage application, plastic box (Table 20, symbol R); format: in vivo, Persian speedwell (Veronica persica); conditions: foliage application, 320 g/ha, three weeks after application
Procedure, shortened: as §3

late watergrass = experiment: Test Example 2: herbicidal activity, application during weed generation under submerged conditions (Table 17, symbol A); format: in vivo, late watergrass (Echinochloa oryzicola); conditions: AAH 320 g/ha; application during weed generation, submerged conditions
Procedure, shortened: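 In this pot test, flooded alluvial soil (water depth 4 cm) holds all three species sown as a mixture. Once seedlings have one to two leaves, the compound's emulsion, thinned with water to the intended dose, is poured on the water; grading follows after three weeks on the earlier criteria.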

[3] = amount of applied herbicide 320 g/ha

COc1ccccc1-c1sc2c(Br)c(OC)ccc2c1-c1c(O)c(C)nn(C)c1=O [7-002]
L: windgrass, herbicidal effect grade (windgrass): 0 (Herbicidal rate of 5% or less (almost no effect))
Herbicidal effect on H (barnyard grass), foliage application (barnyard grass [1]; [3]): 5 (Herbicidal rate of 90% or more (almost completely withered))
Herbicidal effect on E (rice flat sedge), foliage application (rice flat sedge; [3]): 4 (Herbicidal rate of 70% or more and less than 90%)
herbicidal effect on lambsquarters (O) (lambsquarters): 4 (Herbicidal rate of 70% or more and less than 90%)
F: southern crabgrass, herbicidal effect grade (southern crabgrass): 1 (Herbicidal rate of 5% or more and less than 20%)
P: chickweed, herbicidal effect grade (chickweed): 3 (Herbicidal rate of 40% or more and less than 70%)
H: barnyard grass, herbicidal effect grade (barnyard grass [2]): 2 (Herbicidal rate of 20% or more and less than 40%)
Herbicidal effect on D (Chinese sprangletop), foliage application (Chinese sprangletop; [3]): 2 (Herbicidal rate of 20% or more and less than 40%)
Herbicidal effect, C: oval-leafed pondweed (oval-leafed pondweed): 3 (Herbicidal rate of 40% or more and less than 70%)
herbicidal effect on persian speedwell (R) (persian speedwell): 5 (Herbicidal rate of 90% or more (almost completely withered))
herbicidal effect rating, A: late watergrass (late watergrass): 3 (Herbicidal rate of 40% or more and less than 70%)

COCCOc1ccc(-c2oc3ccccc3c2-c2c(O)c(C)nn(C)c2=O)cc1 [Compound No. 8-007, 5-hydroxy-4-(2-(4-(2-methoxyethoxy)phenyl)benzofuran-3-yl)-2,6-dimethylpyridazin-3-(2H)-one]
L: windgrass, herbicidal effect grade (windgrass): 0 (Herbicidal rate of 5% or less (almost no effect))
Herbicidal effect on H (barnyard grass), foliage application (barnyard grass [1]; [3]): 5 (Herbicidal rate of 90% or more (almost completely withered))
Herbicidal effect on E (rice flat sedge), foliage application (rice flat sedge; [3]): 5 (Herbicidal rate of 90% or more (almost completely withered))
herbicidal effect on lambsquarters (O) (lambsquarters): 4 (Herbicidal rate of 70% or more and less than 90%)
F: southern crabgrass, herbicidal effect grade (southern crabgrass): 5 (Herbicidal rate of 90% or more (almost completely withered))
P: chickweed, herbicidal effect grade (chickweed): 0 (Herbicidal rate of 5% or less (almost no effect))
H: barnyard grass, herbicidal effect grade (barnyard grass [2]): 5 (Herbicidal rate of 90% or more (almost completely withered))
Herbicidal effect on D (Chinese sprangletop), foliage application (Chinese sprangletop; [3]): 3 (Herbicidal rate of 40% or more and less than 70%)
Herbicidal effect, C: oval-leafed pondweed (oval-leafed pondweed): 4 (Herbicidal rate of 70% or more and less than 90%)
herbicidal effect on persian speedwell (R) (persian speedwell): 5 (Herbicidal rate of 90% or more (almost completely withered))
herbicidal effect rating, A: late watergrass (late watergrass): 5 (Herbicidal rate of 90% or more (almost completely withered))

CCCC(=O)Oc1c(C)nn(C)c(=O)c1-c1c(-c2ccc(F)cc2)sc2cc(C)c(C)cc12 [5-089]
L: windgrass, herbicidal effect grade (windgrass): 4 (Herbicidal rate of 70% or more and less than 90%)
herbicidal effect on barnyard grass (H) (barnyard grass [1]): 1 (Herbicidal rate of 5% or more and less than 20%)
herbicidal effect on rice flat sedge (E) (rice flat sedge): 3 (Herbicidal rate of 40% or more and less than 70%)
herbicidal effect on lambsquarters (O) (lambsquarters): 0 (Herbicidal rate of 5% or less (almost no effect))
F: southern crabgrass, herbicidal effect grade (southern crabgrass): 0 (Herbicidal rate of 5% or less (almost no effect))
P: chickweed, herbicidal effect grade (chickweed): 0 (Herbicidal rate of 5% or less (almost no effect))
H: barnyard grass, herbicidal effect grade (barnyard grass [2]): 0 (Herbicidal rate of 5% or less (almost no effect))
herbicidal effect on Chinese sprangletop (D) (Chinese sprangletop): 3 (Herbicidal rate of 40% or more and less than 70%)
Herbicidal effect, C: oval-leafed pondweed (oval-leafed pondweed): 0 (Herbicidal rate of 5% or less (almost no effect))
herbicidal effect on persian speedwell (R) (persian speedwell): 1 (Herbicidal rate of 5% or more and less than 20%)
herbicidal effect rating, A: late watergrass (late watergrass): 3 (Herbicidal rate of 40% or more and less than 70%)

C=CCOc1ccc(-c2oc3ccccc3c2-c2c(O)c(C)nn(C)c2=O)cc1 [8-004]
L: windgrass, herbicidal effect grade (windgrass): 0 (Herbicidal rate of 5% or less (almost no effect))
Herbicidal effect on H (barnyard grass), foliage application (barnyard grass [1]; [3]): 5 (Herbicidal rate of 90% or more (almost completely withered))
Herbicidal effect on E (rice flat sedge), foliage application (rice flat sedge; [3]): 4 (Herbicidal rate of 70% or more and less than 90%)
herbicidal effect on lambsquarters (O) (lambsquarters): 3 (Herbicidal rate of 40% or more and less than 70%)
F: southern crabgrass, herbicidal effect grade (southern crabgrass): 4 (Herbicidal rate of 70% or more and less than 90%)
P: chickweed, herbicidal effect grade (chickweed): 1 (Herbicidal rate of 5% or more and less than 20%)
H: barnyard grass, herbicidal effect grade (barnyard grass [2]): 4 (Herbicidal rate of 70% or more and less than 90%)
Herbicidal effect on D (Chinese sprangletop), foliage application (Chinese sprangletop; [3]): 3 (Herbicidal rate of 40% or more and less than 70%)
Herbicidal effect, C: oval-leafed pondweed (oval-leafed pondweed): 4 (Herbicidal rate of 70% or more and less than 90%)
herbicidal effect on persian speedwell (R) (persian speedwell): 5 (Herbicidal rate of 90% or more (almost completely withered))
herbicidal effect rating, A: late watergrass (late watergrass): 3 (Herbicidal rate of 40% or more and less than 70%)

CCOc1ccccc1-c1sc2ccc(F)cc2c1-c1c(O)c(CC)nn(C)c1=O [2-416]
herbicidal effect, L: windgrass (windgrass): 0 (Herbicidal rate of 5% or less (almost no effect))
herbicidal effect on H: barnyard grass (barnyard grass [1]; [3]): 5 (Herbicidal rate of 90% or more (almost completely withered))
herbicidal effect on E: rice flat sedge (rice flat sedge; [3]): 4 (Herbicidal rate of 70% or more and less than 90%)
O: lambsquarters, herbicidal effect grade (lambsquarters): 2 (Herbicidal rate of 20% or more and less than 40%)
herbicidal effect, F: southern crabgrass (southern crabgrass): 0 (Herbicidal rate of 5% or less (almost no effect))
herbicidal effect, P: chickweed (chickweed): 2 (Herbicidal rate of 20% or more and less than 40%)
herbicidal effect, H: barnyard grass (barnyard grass [2]): 0 (Herbicidal rate of 5% or less (almost no effect))
herbicidal effect on D: Chinese sprangletop (Chinese sprangletop; [3]): 3 (Herbicidal rate of 40% or more and less than 70%)
Herbicidal effect, C: oval-leafed pondweed (oval-leafed pondweed): 2 (Herbicidal rate of 20% or more and less than 40%)
R: persian speedwell, herbicidal effect grade (persian speedwell): 5 (Herbicidal rate of 90% or more (almost completely withered))
herbicidal effect rating, A: late watergrass (late watergrass): 2 (Herbicidal rate of 20% or more and less than 40%)

COc1cc(F)ccc1-c1sc2cc(C)c(C)cc2c1-c1c(O)c(C)nn(C)c1=O [5-101]
L: windgrass, herbicidal effect grade (windgrass): 0 (Herbicidal rate of 5% or less (almost no effect))
herbicidal effect on barnyard grass (H) (barnyard grass [1]): 5 (Herbicidal rate of 90% or more (almost completely withered))
herbicidal effect on rice flat sedge (E) (rice flat sedge): 3 (Herbicidal rate of 40% or more and less than 70%)
herbicidal effect on lambsquarters (O) (lambsquarters): 4 (Herbicidal rate of 70% or more and less than 90%)
F: southern crabgrass, herbicidal effect grade (southern crabgrass): 0 (Herbicidal rate of 5% or less (almost no effect))
P: chickweed, herbicidal effect grade (chickweed): 0 (Herbicidal rate of 5% or less (almost no effect))
H: barnyard grass, herbicidal effect grade (barnyard grass [2]): 0 (Herbicidal rate of 5% or less (almost no effect))
herbicidal effect on Chinese sprangletop (D) (Chinese sprangletop): 2 (Herbicidal rate of 20% or more and less than 40%)
Herbicidal effect, C: oval-leafed pondweed (oval-leafed pondweed): 3 (Herbicidal rate of 40% or more and less than 70%)
herbicidal effect on persian speedwell (R) (persian speedwell): 4 (Herbicidal rate of 70% or more and less than 90%)
herbicidal effect rating, A: late watergrass (late watergrass): 0 (Herbicidal rate of 5% or less (almost no effect))
